# Experimental data as given in patent US20110104301A1, “METHODS OF REDUCING PAIN AND INFLAMMATION” (Georgetown University, A Congressionally Chartered …, priority 2008, published 2011).
# Experiments:
# TRPA1 [1] = target: T1, TRPA1 (Rattus norvegicus, UniProt Q6RI86); test: Single-channel recordings of TRPA1 (outside-out / cell-attached patches); format: cell-based
# T1 construct: expressed in transfected cells; host or cells: HEK 293F
# Procedure: (§1) Electrophysiology. HEK 293F cells were transfected with rat TRPV1, TRPA1, and TRPM8 (gift of David Julius, University of California, San Francisco). Dorsal root ganglia were cultured from adult mice (C57B16/J wild type and TRPV1-null, and mixed B6/129 background TRPA1-null) in Neurobasal +2% B-27 medium (Invitrogen), 0.1% L-glutamine and 1% penicillin/streptomycin. Whole-cell and single-channel patch-clamp recordings were performed by using an EPC8 amplifier (HEKA Electronics). For whole-cell and excised patch recordings the bath solution contained 140 mMNaCl, 4 mMKCl, 1 mMMgCl2, 1.2 mMCaCl2, 10 mMHepes, 10 mM glucose, pH 7.3. For cell-attached experiments, NaCl was replaced with KCl in the bath solution. The pipette solution contained 140 mM NaCl or KCl, 10 mM Hepes, 5 mM EGTA, pH 7.3. For neuronal recording NaCl was replaced with K-gluconate (plus 1 mMATP, 0.2 mM GTP). Solutions were applied via a gravity-fed system. Separate outlets were used to apply capsaicin and AITC solutions to avoid contamination. Voltage-dependent properties were measured as described in Matt and Ahern, J. Physiol. 585:469-482 (2007). Current-voltage measurements comprised a 200-ms ramp from −150 mV to +200 mV. The baseline currents under control conditions were subtracted. For cell-attached experiments, peak amplitudes were measured from all-points histograms, and open probability was measured as NPo>750 ms. Defolliculated Xenopus laevis oocytes were injected with ≈10 ng of hTRPA1 (gift of Ardem Patapoutian, The Scripps Research Institute, La Jolla, Calif.). Oocytes were placed in a Perspex chamber and continuously superfused (5 ml min^−1) with Ca^2+-free solution containing 100 mM NaCl, 2.5 mM KCl, 5 mM Hepes, 1 mM MgC12 and titrated to pH 7.3 with ˜5 mM NaOH.
# mice [2] = test: Nocifensive behavior after topical application to the nasal epithelium; format: in vivo, mouse
# Procedure: (§2) Behavioral Experiments and Neurogenic Inflammation. Animal experiments were performed according to National Institutes of Health and institutional guidelines. […] Nocifensive behavior (nose wiping in sawdust bedding) was recorded for 2 min with a video camera and the duration was subsequently measured by a blinded observer. […] Electromyographic (EMG) activity was recorded via platinum electrodes from the semitendinosus muscle in mice anesthetized with urethane (1.3 g/kg) as described in Ando and Watanabe, Br J. Anaesth. […] The EMG signal was recorded by using a low-pass cutoff frequency of 200 Hz and integrated offline by using a 100-ms time window. […] Ear thickness was recorded by using an engineer's micrometer (Mitutoyo Corp.) before mustard-oil application and thereafter every 15 min for 60 min of anesthesia and 60 min of recovery.
# TRPA1 [3] = target: T1, TRPA1; test: Whole-cell patch-clamp of TRPA1-expressing HEK293 cells; format: cell-based; conditions: for Response relative to the full agonist AITC: AITC 1 mM
# Procedure: (§3) Electrophysiology. […] Whole-cell and single-channel patch-clamp recordings were performed by using an EPC8 amplifier (HEKA Electronics). For whole-cell and excised patch recordings the bath solution contained 140 mMNaCl, 4 mMKCl, 1 mMMgCl2, 1.2 mMCaCl2, 10 mMHepes, 10 mM glucose, pH 7.3. For cell-attached experiments, NaCl was replaced with KCl in the bath solution. […] For neuronal recording NaCl was replaced with K-gluconate (plus 1 mMATP, 0.2 mM GTP). Solutions were applied via a gravity-fed system. […] Voltage-dependent properties were measured as described in Matt and Ahern, J. Physiol. […] The baseline currents under control conditions were subtracted. For cell-attached experiments, peak amplitudes were measured from all-points histograms, and open probability was measured as NPo>750 ms. Defolliculated Xenopus laevis oocytes were injected with ≈10 ng of hTRPA1 (gift of Ardem Patapoutian, The Scripps Research Institute, La Jolla, Calif.).
# Volatile General Anesthetics and Chemicals. Saturated stock solutions of volatile GAs were prepared in gas-tight bottles by dissolving excess anesthetic agents in bath solutions overnight. From these stock solutions fresh dilutions were made up every 40-60 min. Concentrations of GAs in the bath solutions were verified by using a modified head-space gas chromatography method. […] Alcohols with <6 carbons were dissolved directly into extracellular solution, and alcohols containing 6 carbons or more were dissolved in DMSO and then diluted into extracellular solutions that were sonicated for 20 min. All other drugs were prepared as stock solutions in DMSO or ethanol and diluted into physiological solution before experiments.
# [4] = system: DRG neurons from TRPA1-null mice; test: Ca2+ imaging in DRG neurons from TRPA1-null mice; format: cell-based, mouse; conditions: desflurane n=125, propofol n=120
# Procedure: (§4) Ca^2+ Imaging. Neurons were loaded with 1 μM Fluo4-AM (Molecular Probes) for 20 min and washed for a further 10-20 min before recording. The dye was excited at 488±15 nm. Emitted fluorescence was filtered with a 535±25 nm bandpass filter, captured by a SPOT RT digital camera (Diagnostic Instruments) and read into a computer. Analysis was performed offline by using Simple PCI software (Compix Inc.).
# TRPV1 = TRPV1 (Rattus norvegicus, UniProt O35433); test: Whole-cell patch-clamp of TRPV1-expressing HEK293 cells; format: cell-based; set-up: expressed in transfected cells; host or cells: HEK 293F (Invitrogen), co-transfected with GFP cDNA; conditions: 100 μM
# Procedure: as §3
# HEK cell and sensory neuron electrophysiology. […] Cell cultures were maintained at 37° C. with 5% CO2. Cells were transfected with rat TRPV 1 (gift of David Julius), and GFP cDNA using Lipofectamine™ Transfection Reagent (Invitrogen) and used 24-48 h after transfection. Nodose ganglia were obtained from adult mice (C57B16/J and TRPV1-null), cut, digested with collagenase, and cultured in Neurobasal +2% B-27 medium (Invitrogen), 0.1% L-glutamine and 1% penicillin/streptomycin on poly-D lysine-coated glass coverslips at 37° C. in 5% CO2. Neurons were used within 24-36 hr of culture. Whole-cell and single-channel patch clamp recordings were performed using an EPC8 amplifier (HEKA). The current signal was low-pass filtered at 1-3 kHz and sampled at 4 kHz. Currents were further filtered for display purposes. For whole-cell and excised patch recordings the bath solution contained (in mM): 140 NaCl, 4 KCl, 1 MgCl2, 1 EGTA, 10 HEPES, 10 glucose pH 7.3 (290 mOsm). The pipette solution contained (in mM): 140 CsC1, 10 NaCl, 10 HEPES, 5 EGTA, 2 Mg ATP and 0.03 GTP, pH 7.3. The peak amplitudes measured either during the prepulse or the tail current (within 1 ms) were plotted as a function of the test potential and normalized to the maximal current obtained from the following Boltzmann function: […]
# DRG neurons = test: Ca2+ imaging in DRG neurons from wild-type mice; format: cell-based, mouse; conditions: propofol 100 μM
# Procedure: as §4
# TRPM8 = target: T2, TRPM8 (Rattus norvegicus, UniProt Q8R455); test: Whole-cell patch-clamp of TRPM8-expressing HEK293 cells; format: cell-based; conditions: 100 μM
# T2 construct: expressed in transfected cells; host or cells: HEK 293F
# Procedure: as §3
# mice [5] = test: Flexor reflex response (EMG of semitendinosus muscle) after femoral artery injection; format: in vivo, mouse; conditions: propofol 500 μM, capsaicin 50 μM
# Procedure: as §2
# [6] = system: AITC-sensitive DRG neurons; test: Voltage- and current-clamp of DRG sensory neurons; format: cell-based, mouse; conditions: 100 μM
# Procedure: as §1
# T1 sequence (Q6RI86 whole entry): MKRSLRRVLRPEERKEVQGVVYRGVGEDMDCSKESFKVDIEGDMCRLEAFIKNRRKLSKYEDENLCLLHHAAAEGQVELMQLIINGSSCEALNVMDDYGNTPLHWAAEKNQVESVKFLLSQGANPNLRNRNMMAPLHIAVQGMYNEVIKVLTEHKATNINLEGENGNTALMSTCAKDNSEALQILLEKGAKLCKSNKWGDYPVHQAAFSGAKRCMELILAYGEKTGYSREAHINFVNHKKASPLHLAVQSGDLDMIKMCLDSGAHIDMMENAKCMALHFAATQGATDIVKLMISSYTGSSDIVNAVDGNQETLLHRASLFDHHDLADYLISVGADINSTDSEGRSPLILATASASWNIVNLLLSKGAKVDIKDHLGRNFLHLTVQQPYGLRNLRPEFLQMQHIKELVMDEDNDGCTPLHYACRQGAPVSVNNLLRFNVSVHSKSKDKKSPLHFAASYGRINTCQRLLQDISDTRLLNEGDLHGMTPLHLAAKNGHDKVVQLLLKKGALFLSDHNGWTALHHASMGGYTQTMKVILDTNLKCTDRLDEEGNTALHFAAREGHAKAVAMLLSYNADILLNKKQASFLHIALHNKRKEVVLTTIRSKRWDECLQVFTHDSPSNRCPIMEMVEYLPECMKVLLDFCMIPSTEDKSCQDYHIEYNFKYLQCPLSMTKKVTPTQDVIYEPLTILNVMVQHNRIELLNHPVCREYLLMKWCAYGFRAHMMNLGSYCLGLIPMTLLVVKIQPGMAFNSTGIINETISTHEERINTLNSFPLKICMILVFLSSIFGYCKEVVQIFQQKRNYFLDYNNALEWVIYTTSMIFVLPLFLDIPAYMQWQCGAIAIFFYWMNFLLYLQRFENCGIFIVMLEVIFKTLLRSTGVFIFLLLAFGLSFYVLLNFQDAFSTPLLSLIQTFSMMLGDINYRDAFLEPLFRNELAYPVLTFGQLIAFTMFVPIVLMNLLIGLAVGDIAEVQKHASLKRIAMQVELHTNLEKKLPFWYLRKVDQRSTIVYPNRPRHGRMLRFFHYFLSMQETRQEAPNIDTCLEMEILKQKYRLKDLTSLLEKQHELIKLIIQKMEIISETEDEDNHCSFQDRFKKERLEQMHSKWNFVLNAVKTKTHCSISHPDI
# Chain of TRPV1 (O35433 whole entry): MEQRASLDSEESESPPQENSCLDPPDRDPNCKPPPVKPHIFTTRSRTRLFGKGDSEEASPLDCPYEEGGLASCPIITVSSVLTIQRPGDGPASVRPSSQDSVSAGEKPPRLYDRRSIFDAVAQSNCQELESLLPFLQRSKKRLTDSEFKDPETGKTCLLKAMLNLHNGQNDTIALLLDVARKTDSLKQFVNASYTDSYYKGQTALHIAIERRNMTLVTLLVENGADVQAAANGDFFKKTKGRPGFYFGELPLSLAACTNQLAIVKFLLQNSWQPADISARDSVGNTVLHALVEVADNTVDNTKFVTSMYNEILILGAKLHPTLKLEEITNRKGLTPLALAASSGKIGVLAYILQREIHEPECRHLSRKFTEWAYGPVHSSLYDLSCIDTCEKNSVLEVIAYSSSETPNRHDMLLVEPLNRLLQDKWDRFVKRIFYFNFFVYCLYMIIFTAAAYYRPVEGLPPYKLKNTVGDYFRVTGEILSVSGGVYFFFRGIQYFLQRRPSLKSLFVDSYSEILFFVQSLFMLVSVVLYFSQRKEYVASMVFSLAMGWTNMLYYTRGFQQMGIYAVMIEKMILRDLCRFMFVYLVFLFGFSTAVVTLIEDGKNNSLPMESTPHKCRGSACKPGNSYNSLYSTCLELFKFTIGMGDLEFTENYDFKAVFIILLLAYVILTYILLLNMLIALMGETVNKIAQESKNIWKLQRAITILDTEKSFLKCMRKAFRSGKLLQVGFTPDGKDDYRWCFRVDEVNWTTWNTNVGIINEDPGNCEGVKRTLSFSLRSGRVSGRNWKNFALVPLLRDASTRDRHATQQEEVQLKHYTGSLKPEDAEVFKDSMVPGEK
# T2 sequence (Q8R455 whole entry): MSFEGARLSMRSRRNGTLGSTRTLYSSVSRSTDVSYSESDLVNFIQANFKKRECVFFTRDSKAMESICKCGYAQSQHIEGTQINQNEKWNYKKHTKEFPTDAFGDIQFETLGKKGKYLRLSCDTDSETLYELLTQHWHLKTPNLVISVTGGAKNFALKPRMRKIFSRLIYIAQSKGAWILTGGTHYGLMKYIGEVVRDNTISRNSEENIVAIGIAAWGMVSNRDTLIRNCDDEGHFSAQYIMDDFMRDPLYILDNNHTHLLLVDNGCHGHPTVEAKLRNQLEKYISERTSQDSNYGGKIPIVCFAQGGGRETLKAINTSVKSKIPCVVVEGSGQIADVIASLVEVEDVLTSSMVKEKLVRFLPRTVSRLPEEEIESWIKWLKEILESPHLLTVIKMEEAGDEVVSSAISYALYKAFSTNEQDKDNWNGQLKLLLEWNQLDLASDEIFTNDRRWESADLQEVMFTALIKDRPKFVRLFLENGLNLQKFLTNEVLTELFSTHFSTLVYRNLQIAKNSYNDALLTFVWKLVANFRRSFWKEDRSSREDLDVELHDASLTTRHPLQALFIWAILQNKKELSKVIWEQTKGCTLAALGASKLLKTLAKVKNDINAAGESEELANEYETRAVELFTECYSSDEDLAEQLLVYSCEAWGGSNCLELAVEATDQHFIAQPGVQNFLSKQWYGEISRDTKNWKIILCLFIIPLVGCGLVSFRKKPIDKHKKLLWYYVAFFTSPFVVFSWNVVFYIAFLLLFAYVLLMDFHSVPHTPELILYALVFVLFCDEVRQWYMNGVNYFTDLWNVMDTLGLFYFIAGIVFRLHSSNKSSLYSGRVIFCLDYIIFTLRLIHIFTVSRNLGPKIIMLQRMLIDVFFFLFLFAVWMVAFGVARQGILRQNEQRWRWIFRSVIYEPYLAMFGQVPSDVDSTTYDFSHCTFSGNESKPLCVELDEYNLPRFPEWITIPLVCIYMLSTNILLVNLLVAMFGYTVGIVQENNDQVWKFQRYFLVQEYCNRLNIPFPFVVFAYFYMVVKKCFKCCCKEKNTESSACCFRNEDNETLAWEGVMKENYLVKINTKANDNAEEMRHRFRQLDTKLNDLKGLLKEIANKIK
smiles,measurement,setting,value
CC(C)c1cccc(C(C)C)c1O [propofol],TRPA1 unitary conductance in presence of propofol,"TRPA1 [1]; 100 μM, outside-out patch, Vm +40 mV, decrease from 108 pS",94 pS
same,Single TRPA1 channel activity,TRPA1 [1]; cell-free patches,increased TRPA1 activity and reduced the unitary conductance
same,Duration of nocifensive response,"mice [2]; TRPA1+/− littermates, propofol 50% topical",≈ 35 s
same,Nocifensive behavior in TRPA1-null mice,mice [2]; propofol 50% topical,completely absent
same,Duration of pain-related (nocifensive) behavior,"mice [2]; wild-type mice, propofol 50% topical to nasal epithelium, 2-min period",≈ 40 s
same,Activation of TRPA1 by i.v. GAs,"TRPA1 [3]; 100 μM, membrane potential −50 mV",robust activation
same,Concentration range of TRPA1 activation,TRPA1 [3]; FIG. 2D,1 to 100 µM
same,Response relative to the full agonist AITC,TRPA1 [3]; at +200 my,~38%
same,Response relative to the full agonist AITC,TRPA1 [3]; at −150 mV,≈ 8%
same,Co-application with octanol at TRPA1,TRPA1 [3]; propofol 100 μM + octanol 1.8 mM,additive response
same,Ca2+ responses in neurons from TRPA1-null mice,[4],no responses
same,Reduction in half-maximal voltage (V1/2) for TRPV1 activation,TRPV1; n=4-5,10.5 mV
same,Effect of i.v. GAs on TRPV1 channels,TRPV1; −50 mV,without effect
same,Cells with dual sensitivity to propofol and AITC,DRG neurons,≈ 30%
same,"Change in V1/2 of TRPM8 (ΔV1/2, increase)",TRPM8; n=5-6,1.7 mV
same,Effect of i.v. GAs on TRPM8 channels,TRPM8; −50 mV,without effect
same,Flexor reflex muscle activity in TRPA1+/− mice,mice [5],evoked reflex muscle activity
same,Flexor reflex muscle activity in TRPA1-null mice,mice [5],no responses
same,Inward currents in AITC-sensitive DRG neurons,[6]; n=6,inward currents were also observed
same,Membrane potential under current clamp,[6]; elicits action potentials,depolarized
